# According to US7517873B2, “Substituted pyrimidodiazepines” (Hoffman-La Roche Inc., priority 2007, dated 2009):
# Molecular target: T1, GST-PLK1 (Homo sapiens, UniProt P53350)
# T1 construct: Full-length, active GST-PLK1 is purified from Sf9 insect cells; made in house; host or cells: Sf9 insect cells
# Assay: Biochemical Characterization Assay: GST-PLK1 kinase HTRF assay with GST-p53 substrate
# Conditions: full-length GST-PLK1, GST-p53 and ATP, 37° C. for 35 minutes, HTRF signal
# Experimental: Biochemical Characterization Assay
# Full-length, active GST-PLK1 is purified from Sf9 insect cells, and full-length GST-p53 is purified from E. coli. Anti-phospho p53 antibody is from Cell Signaling Technology. Europium-conjugated anti-rabbit antibody is from PerkinElmer Life and Analytical Sciences. APC-conjugated anti-GST antibody is from Prozyme.
# To assay compounds of the invention, two microliters of test compound (0.6 nM-4 mM) in DMSO or plain DMSO for control wells, 38 microliters of 20 mM HEPES pH 7, 50 mM NaCl, 10 mM MgCl2, 0.5 mM TCEP, 0.1 mM sodium orthovanadate, 0.1 mg/mL BSA, and 0.05% Triton X-100 (Kinase Assay Buffer) are added. […] Six microliters of GST-PLK1 (3 ug/mL) in Kinase Assay Buffer are then added and the solution incubated at 37° C. for 35 minutes. Six microliters of solution containing 43 mM EDTA to stop the reaction and a 1:600 dilution of anti-phospho-p53 antibody in 20 mM HEPES pH 7, 50 mM NaCl, and 0.5 mg/mL BSA (Antibody Binding Buffer) are added and the solution incubated at 37° C. for 30 minutes. […] The HTRF signal is read on an Envision reader from PerkinElmer Life and Analytical Sciences.
# T1 sequence (P53350 whole entry): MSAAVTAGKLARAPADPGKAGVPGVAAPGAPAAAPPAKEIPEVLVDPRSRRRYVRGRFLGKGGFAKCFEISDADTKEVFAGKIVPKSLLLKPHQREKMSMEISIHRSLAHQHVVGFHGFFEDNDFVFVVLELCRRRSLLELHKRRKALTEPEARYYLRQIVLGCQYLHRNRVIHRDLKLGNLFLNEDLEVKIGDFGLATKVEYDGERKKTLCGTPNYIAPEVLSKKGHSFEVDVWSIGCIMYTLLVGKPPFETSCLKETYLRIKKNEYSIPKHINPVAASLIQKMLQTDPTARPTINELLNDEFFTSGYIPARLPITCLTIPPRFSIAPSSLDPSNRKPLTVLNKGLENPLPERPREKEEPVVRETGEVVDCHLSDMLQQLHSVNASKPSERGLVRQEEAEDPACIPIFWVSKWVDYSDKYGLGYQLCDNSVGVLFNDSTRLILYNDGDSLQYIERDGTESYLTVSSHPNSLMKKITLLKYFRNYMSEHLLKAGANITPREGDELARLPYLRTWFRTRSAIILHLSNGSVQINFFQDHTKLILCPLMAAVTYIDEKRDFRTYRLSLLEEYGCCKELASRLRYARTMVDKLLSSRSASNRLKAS
row,IC50,SMILES
1,< 500 nM,"Cc1cc(C(=O)NC2CCN(C)CC2)ccc1Nc1ncc2c(n1)N(C1CCCC1)CC1(CC1)C(=O)N2C [I-61, 4-[(9-Cyclopentyl-6,7,8,9-tetrahydro-5-methyl-6-oxospiro[5H-pyrimido[4,5-b][1,4]diazepine-7,1′-cyclopropan]-2-yl)amino]-3-methyl-N-(1-methyl-4-piperidinyl)benzamide]"
2,500 to 5000 nM,"COc1ccc(NC(=O)c2ccccc2)cc1Nc1ncc2c(n1)N(C1CCCC1)CC(C)C(=O)N2C (racemic) [I-78, (rac)-N-[3-(9-Cyclopentyl-5,7-dimethyl-6-oxo-6,7,8,9-tetrahydro-5H-pyrimido[4,5-b][1,4]diazepin-2-ylamino)-4-methoxy-phenyl]-benzamide]"
3,> 5000 nM,"COc1cc(C(=O)NC2CCN(C)CC2)ccc1N(C)c1ncc2c(n1)N(C1CCCCC1)CC(C)C(=O)N2C (racemic) [I-66, (rac)-4-[(9-Cyclohexyl-5,7-dimethyl-6-oxo-6,7,8,9-tetrahydro-5H-pyrimido[4,5-b][1,4]diazepin-2-yl)-methyl-amino]-3-methoxy-N-(1-methyl-piperidin-4-yl)-benzamide]"
4,< 500 nM,"CCCCN1CCC(=O)N(C)c2cnc(Nc3ccc(C(=O)NC4CCN(C)CC4)cc3OC)nc21 [I-44, 4-(9-Butyl-5-methyl-6-oxo-6,7,8,9-tetrahydro-5H-pyrimido[4,5-b][1,4]diazepin-2-ylamino)-3-methoxy-N-(1-methyl-piperidin-4-yl)-benzamide]"
5,> 5000 nM,"COc1cc(C(=O)N2CCOCC2)ccc1Nc1ncc2c(n1)N(C1CCCCC1)CCC(=O)N2 [I-31, 9-Cyclohexyl-2-[2-methoxy-4-(morpholine-4-carbonyl)-phenylamino]-5,7,8,9-tetrahydro-pyrimido[4,5-b][1,4]diazepin-6-one]"
6,500 to 5000 nM,"CC1CN(C2CCCC2)c2nc(Nc3ccc(C(=O)NCCN(C)C)c(Cl)c3)ncc2N(C)C1=O (racemic) [I-87, (rac)-2-Chloro-4-(9-cyclopentyl-5,7-dimethyl-6-oxo-6,7,8,9-tetrahydro-5H-pyrimido[4,5-b][1,4]diazepin-2-ylamino)-N-(2-dimethylamino-ethyl)-benzamide]"
7,500 to 5000 nM,"CC1CN(C2CCCC2)c2nc(Nc3ccc(O)c(NC(=O)c4ccncc4)c3)ncc2N(C)C1=O (racemic) [I-48, (rac)-N-[5-(9-Cyclopentyl-5,7-dimethyl-6-oxo-6,7,8,9-tetrahydro-5H-pyrimido[4,5-b][1,4]diazepin-2-ylamino)-2-hydroxy-phenyl]-isonicotinamide]"
8,> 5000 nM,"COc1cc(C(=O)N(C)C)ccc1Nc1ncc2c(n1)N(C1CCC1)CCC(=O)N2C [I-35, 4-(9-Cyclobutyl-5-methyl-6-oxo-6,7,8,9-tetrahydro-5H-pyrimido[4,5-b][1,4]diazepin-2-ylamino)-3-methoxy-N,N-dimethyl-benzamide]"
9,> 5000 nM,"CC1CN(C2CCCC2)c2nc(Nc3ccc4oc(-c5cccnc5)nc4c3)ncc2N(C)C1=O (racemic) [I-77, (rac)-9-Cyclopentyl-5,7-dimethyl-2-(2-pyridin-3-yl-benzooxazol-5-ylamino)-5,7,8,9-tetrahydro-pyrimido[4,5-b][1,4]diazepin-6-one]"
10,< 500 nM,"COc1cc(C(=O)NC2CCN(C)CC2)ccc1Nc1ncc2c(n1)N(C1CCCC1)CC(C)(C)C(=O)N2C [I-39, 4-(9-Cyclopentyl-5,7,7-trimethyl-6-oxo-6,7,8,9-tetrahydro-5H-pyrimido[4,5-b][1,4]diazepin-2-ylamino)-3-methoxy-N-(1-methyl-piperidin-4-yl)-benzamide]"
11,> 5000 nM,"CC1CN(C2CCCC2)c2nc(Nc3cccc(C(=O)NC4CCCCC4)c3)ncc2N(C)C1=O (racemic) [I-91, (rac)-N-Cyclohexyl-3-(9-cyclopentyl-5,7-dimethyl-6-oxo-6,7,8,9-tetrahydro-5H-pyrimido[4,5-b][1,4]diazepin-2-ylamino)-benzamide]"
12,> 5000 nM,"CC1CN(C2CCCC2)c2nc(Nc3ccc4oc(-c5ccncc5)nc4c3)ncc2N(C)C1=O (racemic) [I-76, (rac)-9-Cyclopentyl-5,7-dimethyl-2-(2-pyridin-4-yl-benzooxazol-5-ylamino)-5,7,8,9-tetrahydro-pyrimido[4,5-b][1,4]diazepin-6-one]"
13,< 500 nM,"Cc1cc(C(=O)NC2CCN(C)CC2)ccc1Nc1ncc2c(n1)N(C1CCCC1)CC(C)C(=O)N2C (racemic) [I-8, (rac)-4-(9-Cyclopentyl-5,7-dimethyl-6-oxo-6,7,8,9-tetrahydro-5H-pyrimido[4,5-b][1,4]diazepin-2-ylamino)-3-methyl-N-(1-methyl-piperidin-4-yl)-benzamide]"
14,500 to 5000 nM,"COc1cc(C(N)=O)ccc1Nc1ncc2c(n1)N(C1CCC1)CCC(=O)N2C [I-34, 4-(9-Cyclobutyl-5-methyl-6-oxo-6,7,8,9-tetrahydro-5H-pyrimido[4,5-b][1,4]diazepin-2-ylamino)-3-methoxy-benzamide]"
15,< 500 nM,"COc1cc(C(=O)NC2CCN(C)CC2)ccc1Nc1ncc2c(n1)N(C1CCCC1)CC(C)C(=O)N2C (racemic) [I-2, (rac)-4-(9-Cyclopentyl-5,7-dimethyl-6-oxo-6,7,8,9-tetrahydro-5H-pyrimido[4,5-b][1,4]diazepin-2-ylamino)-3-methoxy-N-(1-methyl-piperidin-4-yl)-benzamide]"
16,< 500 nM,"COc1cc(C(=O)NC2CCN(C)CC2)ccc1Nc1ncc2c(n1)N(C1CCCC1C)CCC(=O)N2C (racemic) [I-57, (rac)-3-Methoxy-4-[5-methyl-9-(2-methyl-cyclopentyl)-6-oxo-6,7,8,9-tetrahydro-5H-pyrimido[4,5-b][1,4]diazepin-2-ylamino]-N-(1-methyl-piperidin-4-yl)-benzamide]"
17,500 to 5000 nM,"CC1CN(C2CCCC2)c2nc(Nc3ccc(C(=O)NC4CCOCC4)c(Cl)c3)ncc2N(C)C1=O (racemic) [I-88, (rac)-2-Chloro-4-(9-cyclopentyl-5,7-dimethyl-6-oxo-6,7,8,9-tetrahydro-5H-pyrimido[4,5-b][1,4]diazepin-2-ylamino)-N-(tetrahydro-pyran-4-yl)-benzamide]"
18,500 to 5000 nM,"CC1CN(C2CCCC2)c2nc(Nc3cccc(C(=O)NC4CCOCC4)c3)ncc2N(C)C1=O (racemic) [I-71, (rac)-3-(9-Cyclopentyl-5,7-dimethyl-6-oxo-6,7,8,9-tetrahydro-5H-pyrimido[4,5-b][1,4]diazepin-2-ylamino)-N-(tetrahydro-pyran-4-yl)-benzamide]"
19,< 500 nM,"COc1cc(C(=O)NCCCn2ccnc2)ccc1Nc1ncc2c(n1)N(C1CCC1)CCC(=O)N2C [I-36, 4-(9-Cyclobutyl-5-methyl-6-oxo-6,7,8,9-tetrahydro-5H-pyrimido[4,5-b][1,4]diazepin-2-ylamino)-N-(3-imidazol-1-yl-propyl)-3-methoxy-benzamide]"
20,500 to 5000 nM,"CCN1CCC(NC(=O)c2cccc(Nc3ncc4c(n3)N(C3CCCC3)CC(C)C(=O)N4C)c2)CC1 (racemic) [I-89, (rac)-3-(9-Cyclopentyl-5,7-dimethyl-6-oxo-6,7,8,9-tetrahydro-5H-pyrimido[4,5-b][1,4]diazepin-2-ylamino)-N-(1-ethyl-piperidin-4-yl)-benzamide]"
21,< 500 nM,"COc1cc(C(=O)NC2CCN(C)CC2)ccc1Nc1ncc2c(n1)N(C1CCCC1)CC1(CC1)C(=O)N2C [I-54, 4-[(9-Cyclopentyl-6,7,8,9-tetrahydro-5-methyl-6-oxospiro[5H-pyrimido[4,5-b][1,4]diazepine-7,1′-cyclopropan]-2-yl)amino]-3-methoxy-N-(1-methyl-4-piperidinyl)benzamide]"
22,< 500 nM,"COc1cc(C(=O)Nc2ccncc2)ccc1Nc1ncc2c(n1)N(C1CCC1)CCC(=O)N2C [I-37, 4-(9-Cyclobutyl-5-methyl-6-oxo-6,7,8,9-tetrahydro-5H-pyrimido[4,5-b][1,4]diazepin-2-ylamino)-3-methoxy-N-pyridin-4-yl-benzamide]"
23,> 5000 nM,"COc1ccccc1Nc1ncc2c(n1)N(C1CCC1)CCC(=O)N2C [I-25, 9-Cyclobutyl-2-(2-methoxy-phenylamino)-5-methyl-5,7,8,9-tetrahydro-pyrimido[4,5-b][1,4]diazepin-6-one]"
24,< 500 nM,"CN1CCC(NC(=O)c2ccc(Nc3ncc4c(n3)N(C3CCCC3)CC(C)(C)C(=O)N4C)cc2)CC1 [I-50, 4-(9-Cyclopentyl-5,7,7-trimethyl-6-oxo-6,7,8,9-tetrahydro-5H-pyrimido[4,5-b][1,4]diazepin-2-ylamino)-N-(1-methyl-piperidin-4-yl)-benzamide]"
25,< 500 nM,"COc1cc(C(=O)NC2CCN(C)CC2)ccc1Nc1ncc2c(n1)N(C1CC1)C(C)C(C)C(=O)N2C (racemic) [I-46, (rac)-4-(9-Cyclopropyl-5,7,8-trimethyl-6-oxo-6,7,8,9-tetrahydro-5H-pyrimido[4,5-b][1,4]diazepin-2-ylamino)-3-methoxy-N-(1-methyl-piperidin-4-yl)-benzamide]"
26,> 5000 nM,"COc1cc(C(=O)Nc2ccccc2)ccc1Nc1ncc2c(n1)N(C1CCCCC1)CCC(=O)N2 [I-28, 4-(9-Cyclohexyl-6-oxo-6,7,8,9-tetrahydro-5H-pyrimido[4,5-b][1,4]diazepin-2-ylamino)-3-methoxy-N-phenyl-benzamide]"
